# From article PMC8333062, “Chemical tools for epichaperome-mediated interactome dysfunctions of the central nervous system” (Nature Communications, 2021)
# “And” between values parts separate entries of the source, which are not always exact repeats. Identical values can stand only once. Like-named read-outs stand apart in the source and are kept apart here.
# Experiments:
# [1] = target: HSP90 pools in JNPL3 (AD transgenic) mouse brain lysate; test: Fluorescence polarization (FP) competitive binding, cy3B-GM; conditions: read-out: FP relative affinity
# [2] = Pharmacokinetic studies in mice (LC-MS/MS); type: in vivo, B6D2F1 mice; conditions: male, B6D2F1, mouse, iv, i.v. 10 mg kg^−1
# Procedure: Blood and brain tissue were collected following euthanasia at the scheduled time points of 5, 30 min, 1, 4, and 8 h following iv dosing and of 30 min, 1, 4, and 8 h following po dosing. Brain samples were immediately flash frozen in liquid nitrogen following collection and stored at −80 °C until analysis. Blood samples were collected into an EDTA tube by heart puncture and centrifuged at 17,000×g for 5 min at 4 °C to separate the plasma and immediately frozen on dry ice and stored at −80 °C until analysis. […] This was homogenized, extracted with methylene chloride, and evaporated on a GeneVac. […] Drug concentration (μM) in the brain was then modified to account for an average water space of 0.8 mL g^−1.
# patient-derived GSCs = test: GSC viability (CellTiter-Glo, 48 h); type: cell-based, human; set-up: %Survival of cells at day 0 (ATP levels): concentration or dose not given beside the values; %Survival (ATP levels): reference not given here; conditions: for %Survival (ATP levels): 1 μM, 48 h, individual replicates, listed as PU-H71; for %Survival of cells at day 0 (ATP levels): mean
# [3] = cited from earlier work
# MDA-MB-468 cells = test: Cell viability, ATP levels 72 h; type: cell-based, human; conditions: control MDA-MB-468 of Fig. 6f; mean
smiles,measurement,setting,value
"CC(C)NCCCn1c(Sc2cc3c(cc2I)OCO3)nc2c(N)ncnc21 [Compound 1, reference compound]",EC50,[1],11 nM
same,AUC,"[2]; brain, read-out: brain exposure, AUC",0.89 µM·h
same,AUC,"[2]; plasma, read-out: plasma exposure, AUC",3.47 µM·h
same,%Survival (ATP levels),patient-derived GSCs; GSC #5,41.476% and 5.798% and 38.7842% and 30.5485%
same,%Survival (ATP levels),patient-derived GSCs; GSC #6,-6.57% and -27.89% and 1.15% and -9.59%
same,%Survival (ATP levels),patient-derived GSCs; GSC #7,-25.19% and -34.61% and -39.02% and -55.29%
same,%Survival (ATP levels),patient-derived GSCs; GSC #8,-77.2% and -77.91% and -68.52% and -70.63%
same,%Survival (ATP levels),patient-derived GSCs; GSC #9,-61.441% and -69.079% and -26.869% and -37.387% and -60.84%
same,%Survival (ATP levels),patient-derived GSCs; GSC #10,-33.379% and -62.081% and -10.588% and -35.788%
same,%Survival (ATP levels),patient-derived GSCs; GSC #13,34.82% and 22.05% and 9.61% and -0.49%
same,%Survival (ATP levels),patient-derived GSCs; GSC #15,-13.07% and -44.27% and -29% and -48.76%
same,%Survival (ATP levels),patient-derived GSCs; GSC #18,-1.04% and -53.07% and -13.29% and -52.53% and 13.24% and -19.8%
same,%Survival (ATP levels),patient-derived GSCs; GSC #19,-8.867% and -20.5667% and 16.158% and 1.691%
same,%Survival (ATP levels),patient-derived GSCs; GSC #24,12.98% and -42.57% and -22.24% and -59.3% and -24.55% and -39.04%
same,%Survival (ATP levels),patient-derived GSCs; GSC #30,-64.892% and -76.295% and -41.317% and -38.952%
same,%Survival (ATP levels),patient-derived GSCs; GSC #31,52.42% and 26.79% and -5.03% and -0.87% and 70.08% and 45.37%
same,%Survival of cells at day 0 (ATP levels),patient-derived GSCs; GSC# 5,29.1%
same,%Survival of cells at day 0 (ATP levels),patient-derived GSCs; GSC# 6,-10.7%
same,%Survival of cells at day 0 (ATP levels),patient-derived GSCs; GSC# 8,-73.6%
same,%Survival of cells at day 0 (ATP levels),patient-derived GSCs; GSC# 9,-51.1%
same,%Survival of cells at day 0 (ATP levels),patient-derived GSCs; GSC# 10,-35.4%
same,%Survival of cells at day 0 (ATP levels),patient-derived GSCs; GSC# 13,16.5%
same,%Survival of cells at day 0 (ATP levels),patient-derived GSCs; GSC# 15,-33.8%
same,%Survival of cells at day 0 (ATP levels),patient-derived GSCs; GSC# 17,16.9%
same,%Survival of cells at day 0 (ATP levels),patient-derived GSCs; GSC# 18,-21.1%
same,%Survival of cells at day 0 (ATP levels),patient-derived GSCs; GSC# 19,-2.9%
same,%Survival of cells at day 0 (ATP levels),patient-derived GSCs; GSC# 24,-29.1%
same,%Survival of cells at day 0 (ATP levels),patient-derived GSCs; GSC# 30,-55.4%
same,%Survival of cells at day 0 (ATP levels),patient-derived GSCs; GSC# 31,31.5%
same,"SUV average, Brain","[3]; 0.5 h, mean n=14",0.17 SUV
same,"SUV average, Lung","[3]; 0.5 h, mean n=14",0.66 SUV
same,"SUV average, Muscle","[3]; 0.5 h, mean n=14",0.59 SUV
same,"SUV average, Brain","[3]; 3 h, mean n=24",0.1104 SUV
same,"SUV average, Lung","[3]; 3 h, mean n=24",0.37 SUV
same,"SUV average, Muscle","[3]; 3 h, mean n=24",0.43 SUV
same,"SUV average, Brain","[3]; 24 h, mean n=24",0.0956 SUV
same,"SUV average, Lung","[3]; 24 h, mean n=24",0.18 SUV
same,"SUV average, Muscle","[3]; 24 h, mean n=24",0.18 SUV
same,%Survival of cells at day 0 (ATP levels),MDA-MB-468 cells,-92.5%
same,PAMPA_BBB,PAMPA-BBB permeability; Supplementary Table 6,7.3±0.5
same,"Papp at 16 h, 50 μM","PAMPA-BBB permeability; pig, PAMPA, pH 7.4",7.3 ×10⁻⁶ cm/s
